Experimental data reported in ChEMBL document CHEMBL1135348, “Synthesis and anticancer evaluation of vitamin K(3) analogues” (Bioorg Med Chem Lett, 2002).

Tests used:
[1] = Dose required for 50% inhibition of growth of Hep3B cells; format: functional, Hep 3B2; settings: Homo sapiens, read-out: ID50 (the source's name)
[2] = system: MKN-45; experiment: Concentration required for 50% inhibition of growth in human stomach adenocarcinoma (MKN45) cell line was determined; format: functional, cell-based
[3] = system: Detroit 551; experiment: Concentration required for 50% inhibition of growth in normal human embryonic skin fibroblast cell line was determined; format: functional, cell-based
[4] = system: WI-38; experiment: Concentration required for 50% inhibition of growth in normal human lung fibroblast (WI-38 cell line) cell line was determined; format: functional, cell-based
[5] = system: MCF7; experiment: Concentration required for 50% inhibition of growth in mammary gland breast adenocarcinoma (MCF-7) cell line was determined; format: functional, cell-based; settings: Homo sapiens
[6] = system: NPC-TW-039; experiment: Concentration required for 50% inhibition of growth in human nasopharyngeal carcinoma (TW-039) cell line was determined
[7] = system: HepG2; experiment: Concentration required for 50% inhibition of growth in human liver hepatoblastoma (Hep G2) cell line was determined; format: functional, cell-based
[8] = system: SW480; experiment: Concentration required for 50% inhibition of growth in human colon adenocarcinoma (SW-480) cell line.; format: functional, cell-based
[9] = system: A549; experiment: Concentration required for 50% inhibition of growth in human lung carcinoma cell line was determined; format: functional, cell-based
[10] = system: MES-SA; experiment: Concentration required for 50% inhibition of growth in human uterine sarcoma (MES-SA) cell line was determined; format: functional, cell-based
[11] = Concentration required for 50% inhibition of growth in human multidrug resistance uterine sarcoma (MES-SA/Dx5 ) cell line was determined; format: functional, cell-based
[12] = system: Detroit 551; experiment: Concentration required for 50% inhibition of growth in normal human embryonic skin fibroblast (Detroit551c) cell line was determined; format: functional, cell-based

## CCCSC1=C(C)C(=O)c2ccccc2C1=O
[1]
  IC50: 14 µM

## CCCCCCCCOC1=C(C)C(=O)c2ccccc2C1=O
[1]
  IC50: 140 µM

## CC1=CC(=O)c2ccccc2C1=O [MENADIONE]
[1]
  IC50: 10 µM

## CCCCCCCCSC1=C(C)C(=O)c2ccccc2C1=O
[1]
  IC50: 100 µM

## CC1=C(SCCCCO)C(=O)c2ccccc2C1=O
[2]
  IC50: 6.78 µM
[3]
  IC50: 7.57 µM
[4]
  IC50: > 10 µM
[5]
  IC50: 5.78 µM
[6]
  IC50: > 10 µM
[7]
  IC50: > 10 µM
[8]
  IC50: 4.51 µM
[9]
  IC50: > 10 µM
[10]
  IC50: > 10 µM
[11]
  IC50: > 10 µM

## CC1=C(SCCCO)C(=O)c2ccccc2C1=O
[2]
  IC50: 6.4 µM
[4]
  IC50: > 10 µM
[5]
  IC50: 5.16 µM
[6]
  IC50: > 10 µM
[7]
  IC50: 9.53 µM
[8]
  IC50: 4.85 µM
[9]
  IC50: > 10 µM
[10]
  IC50: > 10 µM
[11]
  IC50: > 10 µM
[12]
  IC50: 5.26 µM

## CC1=C(SCCO)C(=O)c2ccccc2C1=O
[2]
  IC50: 5.16 µM
[4]
  IC50: 7.37 µM
[5]
  IC50: 5.19 µM
[1]
  IC50: 5.6 µM
[6]
  IC50: > 10 µM
[7]
  IC50: 8.4 µM
[8]
  IC50: 5.14 µM
[9]
  IC50: > 10 µM
[10]
  IC50: > 10 µM
[11]
  IC50: > 10 µM
[12]
  IC50: 8.17 µM

## CC1=C(SCCCCCCO)C(=O)c2ccccc2C1=O
[2]
  IC50: > 10 µM
[3]
  IC50: > 10 µM
[4]
  IC50: > 10 µM
[5]
  IC50: 9.28 µM
[6]
  IC50: > 10 µM
[7]
  IC50: > 10 µM
[8]
  IC50: > 10 µM
[9]
  IC50: > 10 µM
[10]
  IC50: > 10 µM
[11]
  IC50: > 10 µM

## CCCCC1=C(C)C(=O)c2ccccc2C1=O
[1]
  IC50: 78 µM

## CC1=C(SCC(C)O)C(=O)c2ccccc2C1=O (racemic)
[2]
  IC50: 3.92 µM
[4]
  IC50: 5.06 µM
[5]
  IC50: 4.61 µM
[6]
  IC50: > 10 µM
[7]
  IC50: 5.59 µM
[8]
  IC50: 5.19 µM
[9]
  IC50: 4.74 µM
[10]
  IC50: 7.11 µM
[11]
  IC50: 5.1 µM
[12]
  IC50: 4.61 µM

## CC1=C(SC(C)C(C)O)C(=O)c2ccccc2C1=O (stereo not drawn)
[2]
  IC50: 5.64 µM
[3]
  IC50: > 10 µM
[4]
  IC50: > 10 µM
[5]
  IC50: > 10 µM
[6]
  IC50: > 10 µM
[7]
  IC50: > 10 µM
[8]
  IC50: 5.53 µM
[9]
  IC50: > 10 µM
[10]
  IC50: > 10 µM
[11]
  IC50: > 10 µM

## CCCCSC1=C(C)C(=O)c2ccccc2C1=O
[1]
  IC50: 15 µM

## CCCCOC1=C(C)C(=O)c2ccccc2C1=O
[1]
  IC50: 55 µM
